Assay results from ChEMBL document CHEMBL4007412, “Design, Synthesis, and Biological Evaluation of Mitochondria-Targeted Flavone-Naphthalimide-Polyamine Conjugates with Antimetastatic Activity” (J Med Chem, 2017).
Calls of active or inactive are those of the source. The rule behind the calls is not given here.

What was measured:
[1] = test system: HepG2; assay: Cytotoxicity against human HepG2 cells assessed as cell growth inhibition after 48 hrs by MTT assay; format: functional, cell-based; conditions: HepG2, 48 h
[2] = test system: HepG2; assay: Inhibition of colony formation of human HepG2 cells up to 20 uM […] by crystal violet staining based colony formation assay; format: functional, cell-based
[3] = test system: SMMC-7721; assay: Antimigratory activity against human SMMC7721 cells incubated for 24 hrs by transwell assay; format: functional, cell-based
[4] = test system: H22; assay: Antitumor activity against […] xenografted in Kunming mouse assessed as suppression of tumor weight at 3 mg/kg, iv dosed every day starting from day 8 after tumor cell inoculation; format: functional
[5] = test system: H22; assay: Antimetastatic activity against […] xenografted in pulmonary metastasis Kunming mouse model assessed as reduction in tumor metastatic nodules at 3 mg/kg, iv dosed every day starting from day 8 after tumor cell inoculation; format: functional; set-up: scale not given: the % may be the effect or the level left
[6] = test system: Mus musculus; assay: Toxicity in Kunming mouse xenografted with […] cells assessed as effect on heart weight index at 3 mg/kg, iv dosed every day starting from day 8 after tumor cell inoculation; format: organism-based; conditions: in vivo
[7] = test system: Mus musculus; assay: Toxicity in Kunming mouse xenografted with […] cells assessed as effect on spleen weight index at 3 mg/kg, iv dosed every day starting from day 8 after tumor cell inoculation; format: organism-based; conditions: in vivo
[8] = test system: Mus musculus; assay: Toxicity in Kunming mouse xenografted with […] cells assessed as effect on kidney weight index at 3 mg/kg, iv dosed every day starting from day 8 after tumor cell inoculation; format: organism-based; conditions: in vivo
[9] = Drug uptake in human HepG2 cells assessed as PAT-mediated cellular uptake after 8 hrs by HCS analysis; format: ADME, cell-based
[10] = Drug uptake in human HepG2 cells assessed as PAT-mediated cellular uptake at 10 uM by HCS analysis; format: ADME, cell-based; conditions: TDE = time-dependent effect
[11] = test system: HepG2; assay: Cytotoxicity against human HepG2 cells assessed as effect on cell viability at 5 to 20 uM after 24 hrs in absence of spermidine by MTT assay; format: functional, cell-based
[12] = Drug uptake in human HepG2 cells assessed as PAT-mediated compound uptake by measuring fluorescent intensity at 5 to 10 uM after 6 hrs in presence of spermidine by HCS analysis; format: ADME, cell-based
[13] = Drug uptake in human HepG2 cells assessed as PAT-mediated compound uptake by measuring fluorescent intensity at 10 uM after 2 to 8 hrs in presence of spermidine by HCS analysis; format: ADME, cell-based
[14] = test system: HepG2; assay: Effect on ODC expression in human HepG2 cells at 5 to 20 uM after 24 hrs by Western blot analysis; format: functional, cell-based
[15] = test system: HepG2; assay: Effect on putrescine levels in human HepG2 cells at 20 uM after 24 hrs by HPLC analysis; format: functional, cell-based
[16] = test system: SMMC-7721; assay: Effect on putrescine levels in human SMMC7721 cells at 20 uM after 24 hrs by HPLC analysis; format: functional, cell-based
[17] = test system: SMMC-7721; assay: Effect on spermidine levels in human SMMC7721 cells at 20 uM after 24 hrs by HPLC analysis; format: functional, cell-based
[18] = Drug localization in human HepG2 cell nucleus at 10 uM after 8 hrs by propidium iodide-staining based microscopic analysis; format: ADME
[19] = Drug localization in human HepG2 cell lysosomes at 10 uM after 8 hrs by Lyso tracker-staining based confocal microscopic analysis; format: ADME, Lysosome
[20] = Drug localization in human HepG2 cell endoplasmic reticulum at 10 uM after 8 hrs by ER tracker-staining based confocal microscopic analysis; format: ADME
[21] = Drug localization in human HepG2 cell golgi apparatus at 10 uM after 8 hrs by Golgi tracker-staining based confocal microscopic analysis; format: ADME
[22] = Drug localization in human HepG2 cell mitochondria at 10 uM after 8 hrs by Mito tracker-staining based confocal microscopic analysis; format: ADME
[23] = test system: HepG2; assay: Disruption of mitochondrial membrane potential in human HepG2 cells at 20 uM after 24 hrs by JC-1 staining based flow cytometry; format: functional, cell-based
[24] = test system: HepG2; assay: Disruption of mitochondrial membrane potential in human HepG2 cells at 20 uM after 24 hrs by Rhodamine123 staining-based flow cytometry; format: functional, cell-based
[25] = test system: HepG2; assay: Induction of apoptosis in human HepG2 cells assessed as late apoptotic cells at 20 uM after 24 hrs by Annexin V-FITC/propidium iodide staining based flow cytometric analysis (reference value: 8.96 %); format: functional
[26] = test system: HepG2; assay: Induction of apoptosis in human HepG2 cells assessed as necrotic cells at 20 uM after 24 hrs by Annexin V-FITC/propidium iodide staining based flow cytometric analysis (reference value: 2.99 %); format: functional
[27] = test system: HepG2; assay: Induction of apoptosis in human HepG2 cells assessed as upregulation of cleaved caspase 3 after 24 hrs by immunofluorescence analysis; format: functional, cell-based
[28] = Induction of apoptosis in human QSG7701 cells assessed as up-regulation of caspase 3 expression up to 20 uM after 24 hrs by Western blot analysis; format: cell-based; conditions: qsg7701, 24 h
[29] = test system: HepG2; assay: Induction of intracellular ROS generation in human HepG2 cells at 20 uM after 8 hrs by DCFH-DA staining based HCS analysis relative to control; format: functional
[30] = test system: SMMC-7721; assay: Induction of intracellular ROS generation in human SMMC7721 cells at 20 uM after 8 hrs by DCFH-DA staining based HCS analysis relative to control; format: functional
[31] = test system: HepG2; assay: Induction of H2O2 production in human HepG2 cells; format: functional, cell-based
[32] = test system: HepG2; assay: Induction of ROS generation in human HepG2 cells at 20 uM after 24 hrs in presence of NAC by DCFH-DA-staining based HCS analysis; format: functional, cell-based
[33] = test system: HepG2; assay: Induction of ROS generation in human HepG2 cells at 20 uM after 24 hrs in presence of TOC by DCFH-DA-staining based HCS analysis; format: functional, cell-based
[34] = test system: HepG2; assay: Antiproliferative activity against human HepG2 cells assessed as reduction in cell viability at 20 uM pre-treated with CAT after 48 hrs by MTT assay; format: functional, cell-based
[35] = test system: SMMC-7721; assay: Antiproliferative activity against human SMMC7721 cells assessed as reduction in cell viability at 20 uM pre-treated with NAC after 48 hrs by MTT assay; format: functional, cell-based
[36] = test system: SMMC-7721; assay: Antiproliferative activity against human SMMC7721 cells assessed as reduction in cell viability at 20 uM pre-treated with TOC after 48 hrs by MTT assay; format: functional, cell-based
[37] = test system: HepG2; assay: Induction of cleaved caspase 3 expression in human HepG2 cells up to 20 uM pre-treated with NAC measured after 24 hrs by Western blot analysis; format: functional, cell-based
[38] = test system: HepG2; assay: Inhibition of cell migration in human HepG2 cells pretreated with NAC measured after 24 hrs by transwell assay; format: functional, cell-based
[39] = test system: HepG2; assay: Induction of p53 expression in human HepG2 cells up to 20 uM after 24 hrs by Western blot analysis relative to control; format: functional, cell-based
[40] = test system: H22; assay: Antimetastatic activity against […] xenografted in pulmonary metastasis Kunming mouse model assessed as reduction in tumor metastatic nodules at 3 mg/kg, iv dosed every day starting from day 8 after tumor cell inoculation by H/E staining based leica microscopic analysis; format: functional, organism-based
[41] = test system: HepG2; assay: Induction of superoxide production in human HepG2 cells at 20 uM after 24 hrs by microplate reader based assay; format: functional, cell-based
[42] = test system: HepG2; assay: Induction of p53 expression in human HepG2 cells up to 20 uM after 24 hrs by immunofluoresence assay relative to control; format: functional, cell-based

Drug uptake [9]: Dose-dependent effect
Drug uptake [10]: Tde
Drug uptake [12]: Not Active
Drug uptake [13]: Not Active
Drug uptake [18]: Not Active
Drug uptake [19]: Not Active
Drug uptake [20]: Not Active
Drug uptake [21]: Not Active
Drug uptake [22]: Active
SMILES: Cl.Cl.NCCCCNCCCCN1C(=O)c2cccc3c(-c4cc(=O)c5ccccc5o4)ccc(c23)C1=O
IC50 [1]: 10.3 µM
Activity [2]: Active
Activity [3]: Dose-dependent effect
Activity [4]: 60.4%
Activity [5]: 77.9%
Activity [6]: Non-Toxic
Activity [7]: Non-Toxic
Activity [8]: Non-Toxic
Activity [11]: Active
Activity [14]: inactive
Activity [15]: inactive
Activity [16]: inactive
Activity [17]: inactive
Activity [23]: Active
Activity [24]: Active
Activity [25]: 26.6%
Activity [26]: 8.91%
Activity [27]: Dose-dependent effect
Activity [28]: Non-Toxic
fold change (FC) [29]: 2.6
fold change (FC) [30]: 2.2
Activity [31]: Active
Activity [32]: inactive
Activity [33]: inactive
Activity [34]: inactive
Activity [35]: inactive
Activity [36]: inactive
Activity [37]: inactive
inhibition [38]: inactive
Activity [39]: Dose-dependent effect
Activity [40]: Active
Activity [41]: Active
Activity [42]: Dose-dependent effect
